Results published in patent publication US20060257489A1, “Fine particles, method and device for preparation thereof, and agent for parenteral injection and method for production thereof” (priority 2003, published 2006).

How the values were obtained:
Type in all cases: physicochemical
[1] = observation of apparent dissolution in water after laser fine pulverization
Description: Subsequently, carbamazepine was suspended in water so that the concentration thereof was equal to 2 mg/ml, thereby preparing suspended liquid, and triple higher harmonics of YAG laser ([…], FWHM=4 ns, 20 Hz, irradiation time: 15 minutes) was irradiated to the suspended liquid.

[2] = absorbance characteristic before and after laser beam irradiation (photochemical reaction / degeneration)
Description: (§1) The absorbance characteristic of the solution was measured by using a general-purpose spectrophotometer (HITACHI U-3500). […] The optical path length was set to 10 mm for the measurement.

[3] = particle diameter estimated from the absorbance characteristic after fine pulverization; conditions: for particle diameter after fine pulverization treatment: 355 nm, 310 mJ/cm^2Pulse
Text: The measured value (R) of the absorbance measured by the general-purpose spectrophotometer contains the light absorption (A1) of finely-pulverized carbamazepine itself, the light scattering (S) and the light absorption (A2) of the added surfactant. A1 represents the fine pulverization state of carbamazepine, and it is estimated that the average particle diameter of carbamazepine is smaller as the light absorption is larger. Therefore, in order to estimate the particle diameter of carbamazepine after the treatment, with respect to the absorbance on the ordinate axis in FIG. 8, the increment (S) of the absorbance by the light scattering at each wavelength is approximated to the measured value (S1) of 500 nm at which carbamazepine has no absorption, and the measured value R of the absorbance is corrected to the absorbance A1 by using the operation of A1≈R−A2-S1.
The absorbance characteristic after the laser beam irradiation was measured in the same manner as example 3. In FIG. 9, the solid line represents the absorbance characteristic of the treatment target liquid using the surfactant liquid having the concentration of 1/1000, the one-dot-dashed line represents the absorbance characteristic of the treatment target liquid using the surfactant liquid having the concentration of 1/100, and the two-dot-dashed line represents the absorbance characteristic of the treatment target liquid using the surfactant liquid having the concentration of 1/10. The dashed line represents the absorbance characteristic of the treatment target liquid using no surfactant.

[4] = variation of the absorbance characteristic of the finely-pulverized solution with time lapse after laser beam irradiation (dispersion stability); conditions: finely-pulverized solution in water (355 nm, 380 mJ/cm^2Pulse, 15 minutes), after six days
Description: as §1
The absorbance characteristic indicated by the dashed line is the one before laser beam irradiation.

[5] = purity after fine pulverization treatment by HPLC, laser beam wavelength dependence; conditions: one hour
Description: In this example, fine pulverization of clobetasone butyrate as adrenal cortex hormone of hardly-soluble medicament was attempted. […] A stirring magnet stick for stirring the liquid was put in the square cell so that a laser beam was uniformly irradiated to the suspended liquid. The temperature of the suspended liquid was set to room temperature of 25° C. at all times except for a temperature dependence test.
In this example, a continuously wavelength-variable OPO parametric oscillator was used as a light source for fine pulverization because the wavelength dependence of the fine pulverization and photochemical reaction by laser beam irradiation was required to be investigated. The pulse width of the irradiation laser beam was set to FWHM 4 ns, and the repetition frequency was set to 10 Hz.
Subsequently, the irradiation wavelength of the laser beam was varied and the test was carried out.

dissolution when suspended in pure water ([1]; precipitate after laser treatment (355 nm, 430 mJ/cm^2Pulse, 15 minutes)) | dissolution when suspended in pure water ([1]; sample before the treatment) | photochemical reaction on laser beam irradiation ([2]; 1 mg/ml suspended in water, 355 nm, 310 mJ/cm^2Pulse, 15 minutes, with and without surfactant Tween20) | photochemical reaction on laser beam irradiation ([2]; 2 mg/ml suspended in water, 355 nm, 430 mJ/cm^2Pulse, 15 minutes) | particle diameter after fine pulverization treatment ([3]; 15 minutes, 1 mg/ml in water) | Compound | appearance of the solution after the laser beam irradiation ([1]; water, 355 nm, 380 mJ/cm^2Pulse) | precipitation caused by the aggregation of fine particles [4] | degeneration after the treatment ([2]; 355 nm treatment, UV absorption curves just after the treatment and after six days) | photochemical reaction on laser beam irradiation ([2]; Kr-F laser 248 nm, otherwise as example 1) | degree of fine pulverization of the suspended liquid ([3]; 0.5 mg/ml in water, YAG pulse laser 1064 nm, 1700 mJ/cm^2 per pulse, one hour) | particle diameter after fine pulverization treatment ([3]; with added surfactant Tween20) | purity after fine pulverization treatment (HPLC) ([5]; laser beam wavelength 500 nm or less) | purity after fine pulverization treatment (HPLC) ([5]; laser beam wavelength 500 to 800 nm)
instantaneously dissolved | hardly dissolved | no photochemical reaction is induced | little photochemical reaction occurred | sub-micron or less | NC(=O)N1c2ccccc2C=Cc2ccccc21 [carbamazepine] | – | – | – | – | – | – | – | –
– | – | – | – | – | CCCC(=O)O[C@]1(C(=O)CCl)[C@H](C)C[C@@H]2[C@@H]3CCC4=CC(=O)C=C[C@]4(C)[C@]3(F)C(=O)C[C@@]21C [clobetasone butyrate] | transparent | rarely observed | no degeneration occurred | some photochemical reaction occurs | sub-micrometer order | sub-micron or less | degradation is also small | great degradation of the purity
